Tested on: PBMC (polyclonal gluten-specific T cells) of paediatric and adult CD patients
Assay: IFN-γ ELISpot of PBMC after 3 day oral wheat challenge (SFU, % of maximal peptide response, dominance scores, EC50; Examples 5-6)
Type: cell-based, human
Conditions: for Cross-reactive T cell response: following wheat challenge; for IFN-γ ELISpot response: after oral wheat challenge
[1] = subject I (3-5yrs/6-10yrs part)
[2] = subject J (3-5yrs/6-10yrs part)
[3] = subject K (3-5yrs/6-10yrs part)
[4] = subject V (3-5yrs/6-10yrs part)
[5] = subject W (3-5yrs/6-10yrs part)
[6] = subject Y (3-5yrs/6-10yrs part)
[7] = subject five (3-5yrs/6-10yrs part)
[8] = subject seven (3-5yrs/6-10yrs part)
[9] = subject six (3-5yrs/6-10yrs part)
[10] = subject ten (3-5yrs/6-10yrs part)
[11] = subject two (3-5yrs/6-10yrs part)

Sequence: QPFPQPEQPIPYQ
- Cross-reactive T cell response (subject A, 11-17yrs): 8 SFU
- Significant response as a percentage of maximal peptide SFU (subject D, 11-17yrs): + (>70% = +)
- Cross-reactive T cell response (subject D, 11-17yrs): 23 SFU
- Significant response as a percentage of maximal peptide SFU (subject E, 11-17yrs): ′′ (21-40% = ′′)
- Cross-reactive T cell response (subject E, 11-17yrs): 86 SFU
- Significant response as a percentage of maximal peptide SFU (subject F, 11-17yrs): ′′′ (41-70% = ′′′)
- Cross-reactive T cell response (subject F, 11-17yrs): 84 SFU
- Cross-reactive T cell response (subject G, 11-17yrs): 2 SFU
- Cross-reactive T cell response (subject H): 3 SFU
- Cross-reactive T cell response [1]: 5 SFU
- Significant response as a percentage of maximal peptide SFU (subject J): ′′′ (41-70% = ′′′)
- Cross-reactive T cell response [2]: 124 SFU
- Significant response as a percentage of maximal peptide SFU (subject K): ′′ (21-40% = ′′)
- Cross-reactive T cell response [3]: 21 SFU
- Significant response as a percentage of maximal peptide SFU (subject P, 11-17yrs): ′′′ (41-70% = ′′′)
- Cross-reactive T cell response (subject P, 11-17yrs): 33 SFU
- Significant response as a percentage of maximal peptide SFU (subject Q, 11-17yrs): ′′′ (41-70% = ′′′)
- Cross-reactive T cell response (subject Q, 11-17yrs): 58 SFU
- Significant response as a percentage of maximal peptide SFU (subject T, 11-17yrs): + (>70% = +)
- Cross-reactive T cell response (subject T, 11-17yrs): 84 SFU
- Significant response as a percentage of maximal peptide SFU (subject U, 11-17yrs): ′′′ (41-70% = ′′′)
- Cross-reactive T cell response (subject U, 11-17yrs): 55 SFU
- Significant response as a percentage of maximal peptide SFU (subject V): ′′′ (41-70% = ′′′)
- Cross-reactive T cell response [4]: 22 SFU
- Cross-reactive T cell response [5]: 11 SFU
- Significant response as a percentage of maximal peptide SFU (subject Y): ′′′ (41-70% = ′′′)
- Cross-reactive T cell response [6]: 11 SFU
- Significant response as a percentage of maximal peptide SFU (subject five): ′′′ (41-70% = ′′′)
- Cross-reactive T cell response [7]: 30 SFU
- Cross-reactive T cell response (subject nine, 11-17yrs): 0 SFU
- Cross-reactive T cell response [8]: 8 SFU
- Significant response as a percentage of maximal peptide SFU (subject six): + (>70% = +)
- Cross-reactive T cell response [9]: 11 SFU
- Cross-reactive T cell response [10]: 9 SFU
- Significant response as a percentage of maximal peptide SFU (subject two): ′′′ (41-70% = ′′′)
- Cross-reactive T cell response [11]: 31 SFU

Sequence: QPFPQPEQPTPIQ
- Cross-reactive T cell response (subject A, 11-17yrs): 6 SFU
- Significant response as a percentage of maximal peptide SFU (subject D, 11-17yrs): ′′ (21-40% = ′′)
- Cross-reactive T cell response (subject D, 11-17yrs): 11 SFU
- Significant response as a percentage of maximal peptide SFU (subject E, 11-17yrs): ′′ (21-40% = ′′)
- Cross-reactive T cell response (subject E, 11-17yrs): 63 SFU
- Cross-reactive T cell response (subject F, 11-17yrs): 73 SFU
- Cross-reactive T cell response (subject G, 11-17yrs): 1 SFU
- Cross-reactive T cell response (subject H): 1 SFU
- Cross-reactive T cell response [1]: 0 SFU
- Significant response as a percentage of maximal peptide SFU (subject J): ′′′ (41-70% = ′′′)
- Cross-reactive T cell response [2]: 86 SFU
- Cross-reactive T cell response [3]: 7 SFU
- Significant response as a percentage of maximal peptide SFU (subject P, 11-17yrs): ′′ (21-40% = ′′)
- Cross-reactive T cell response (subject P, 11-17yrs): 23 SFU
- Significant response as a percentage of maximal peptide SFU (subject Q, 11-17yrs): ′′′ (41-70% = ′′′)
- Cross-reactive T cell response (subject Q, 11-17yrs): 39 SFU
- Significant response as a percentage of maximal peptide SFU (subject T, 11-17yrs): ′′′ (41-70% = ′′′)
- Cross-reactive T cell response (subject T, 11-17yrs): 61 SFU
- Significant response as a percentage of maximal peptide SFU (subject U, 11-17yrs): ′′ (21-40% = ′′)
- Cross-reactive T cell response (subject U, 11-17yrs): 21 SFU
- Cross-reactive T cell response [4]: 5 SFU
- Cross-reactive T cell response [5]: 0 SFU
- Cross-reactive T cell response [6]: 4 SFU
- Significant response as a percentage of maximal peptide SFU (subject five): + (>70% = +)
- Cross-reactive T cell response [7]: 38 SFU
- Cross-reactive T cell response (subject nine, 11-17yrs): 2 SFU
- Cross-reactive T cell response [8]: 6 SFU
- Significant response as a percentage of maximal peptide SFU (subject six): + (>70% = +)
- Cross-reactive T cell response [9]: 12 SFU
- Cross-reactive T cell response [10]: 8 SFU
- Significant response as a percentage of maximal peptide SFU (subject two): ′′ (21-40% = ′′)
- Cross-reactive T cell response [11]: 20 SFU

Sequence: QPFPQPEQQLPLQ
- Cross-reactive T cell response (subject A, 11-17yrs): 1 SFU
- Cross-reactive T cell response (subject D, 11-17yrs): 5 SFU
- Significant response as a percentage of maximal peptide SFU (subject E, 11-17yrs): ′ (11-20% = ′)
- Cross-reactive T cell response (subject E, 11-17yrs): 30 SFU
- Cross-reactive T cell response (subject F, 11-17yrs): 5 SFU
- Cross-reactive T cell response (subject G, 11-17yrs): 1 SFU
- Cross-reactive T cell response (subject H): 1 SFU
- Cross-reactive T cell response [1]: 3 SFU
- Significant response as a percentage of maximal peptide SFU (subject J): ′′′ (41-70% = ′′′)
- Cross-reactive T cell response [2]: 79 SFU
- Cross-reactive T cell response [3]: 9 SFU
- Cross-reactive T cell response (subject P, 11-17yrs): 11 SFU
- Significant response as a percentage of maximal peptide SFU (subject Q, 11-17yrs): ′ (11-20% = ′)
- Cross-reactive T cell response (subject Q, 11-17yrs): 11 SFU
- Significant response as a percentage of maximal peptide SFU (subject T, 11-17yrs): ′′ (21-40% = ′′)
- Cross-reactive T cell response (subject T, 11-17yrs): 27 SFU
- Cross-reactive T cell response (subject U, 11-17yrs): 4 SFU
- Cross-reactive T cell response [4]: 3 SFU
- Cross-reactive T cell response [5]: 3 SFU
- Cross-reactive T cell response [6]: 5 SFU
- Significant response as a percentage of maximal peptide SFU (subject five): ′′ (21-40% = ′′)
- Cross-reactive T cell response [7]: 11 SFU
- Cross-reactive T cell response (subject nine, 11-17yrs): 3 SFU
- Cross-reactive T cell response [8]: 11 SFU
- Significant response as a percentage of maximal peptide SFU (subject six): + (>70% = +)
- Cross-reactive T cell response [9]: 11 SFU
- Cross-reactive T cell response [10]: 6 SFU
- Cross-reactive T cell response [11]: 2 SFU

Sequence: QPFPQPQQPFSQQ
- IFN-γ ELISpot response (patient A, 11-17 yrs, cut-off 10 SFU): 9 SFU
- IFN-γ ELISpot response (patient E, H, 11-17 yrs, cut-off 10 SFU): 16 SFU
- Significant response as percentage of maximal peptide SFU (patient E, max peptide 224 SFU): (6-10% = ^)
- IFN-γ ELISpot response (patient F, 11-17 yrs, cut-off 10 SFU): 12 SFU
- Significant response as percentage of maximal peptide SFU (patient F, max peptide 178 SFU): (6-10% = ^)
- IFN-γ ELISpot response (patient G, 11-17 yrs, cut-off 10 SFU): 1 SFU
- IFN-γ ELISpot response (patient H (HLA-DQ2.5 homozygote), 3-5yrs, cut-off 10 SFU): 13 SFU
- IFN-γ ELISpot response (patient H, 11-17 yrs, cut-off 10 SFU): 2 SFU
- IFN-γ ELISpot response (patient ID not given, 11-17 yrs, cut-off 10 SFU): 30 SFU
- Significant response as percentage of maximal peptide SFU (patient ID not given, max peptide 95 SFU): ′′ (21-40% = ′′)
- Significant response as percentage of maximal peptide SFU (patient II, max peptide 15 SFU): + (>70% = +)
- Significant response as percentage of maximal peptide SFU (patient J, max peptide 196 SFU): (6-10% = ^)
- Significant response as percentage of maximal peptide SFU (patient K, max peptide 53 SFU): ′′ (21-40% = ′′)
- Significant response as percentage of maximal peptide SFU (patient M, max peptide 48 SFU): ′′ (21-40% = ′′)
- IFN-γ ELISpot response (patient N, 3-5yrs, cut-off 10 SFU): 3 SFU
- IFN-γ ELISpot response (patient P, 11-17 yrs, cut-off 21.6 SFU): 10 SFU
- IFN-γ ELISpot response (patient Q, 11-17 yrs, cut-off 10 SFU): 28 SFU
- Significant response as percentage of maximal peptide SFU (patient Q, max peptide 97 SFU): ′′ (21-40% = ′′)
- IFN-γ ELISpot response (patient U, H, 11-17 yrs, cut-off 10 SFU): 22 SFU
- Significant response as percentage of maximal peptide SFU (patient U, max peptide 81 SFU): ′′ (21-40% = ′′)
- IFN-γ ELISpot response (patient V, 6-10 yrs, cut-off 10 SFU): 5 SFU
- IFN-γ ELISpot response (patient Y, 6-10 yrs, cut-off 10 SFU): 6 SFU
- IFN-γ ELISpot response (patient eleven, 6-10 yrs, cut-off 10 SFU): 1 SFU
- Significant response as percentage of maximal peptide SFU (patient five, max peptide 48 SFU): ′′ (21-40% = ′′)
- IFN-γ ELISpot response (patient four, 3-5yrs, cut-off 10 SFU): 12 SFU
- Significant response as percentage of maximal peptide SFU (patient four, max peptide 44 SFU): ′′ (21-40% = ′′)
- IFN-γ ELISpot response (patient seven, 6-10 yrs, cut-off 10.5 SFU): 6 SFU
- IFN-γ ELISpot response (patient ten, 3-5yrs, cut-off 10 SFU): 3 SFU
- IFN-γ ELISpot response (patient three, 6-10 yrs, cut-off 10.5 SFU): 13 SFU
- IFN-γ ELISpot response (patient twelve, 11-17 yrs, cut-off 10 SFU): 9 SFU
- IFN-γ ELISpot response (patient two, 3-5yrs, cut-off 10 SFU): 9 SFU

Sequence: QPPFSEEQEQPLPQ [gluten peptide described by Vader et al, reference compound]
- positive polyclonal T cell response after wheat challenge, proportion (Example 5, 2/30): 6.7%
- polyclonal T cell responses following wheat challenge, volunteers (Example 6, 2/30): 6.7%
